The numbers were not newly measured in patent US20260201030A1, “ANTIBODY, ANTIBODY-DRUG CONJUGATE THEREOF AND USE THEREOF” (EVOPOINT BIOSCIENCES CO., LTD., priority 2021, published 2026), which cites them from elsewhere.

The conditions of this data set: FL118 alone; cited from earlier work.

Each structure is given as a SMILES string.

`CC[C@@]1(O)C(=O)OCc2c1cc1n(c2=O)Cc2cc3cc4c(cc3nc2-1)OCO4` [FL118, (20S)-10,11-methylenedioxy camptothecin]: the water solubility result is on record as “extremely poor water solubility”.
